# Data taken from patent US20250276965A1, “PROCESS FOR THE PREPARATION OF ANTIBACTERIAL COMPOUNDS” (DISCUVA LIMITED, priority 2021, published 2025).
# What was measured:
# [1] = system: Providencia spp. (10 isolates); test: MIC by broth microdilution versus Providencia spp. isolates; format: cell-based
# Description: (§1) Minimum Inhibitory Concentration (MIC90) versus 100 isolates of Escherichia coli and Klebsiella pneumonia were determined. The Minimum Inhibitory Concentration at which 90% of the isolates (strains) are inhibited (MIC90) were measured by broth microdilution in line with EUCAST susceptibility testing standards (www.eucast.org). Bacterial inocula were prepared at ca 1×10^6 CFU/mL by diluting 100-fold a 0.5 McFarland suspension. Antibacterial panels containing 50 μl of antibacterial solutions at 2×the final concentrations were diluted 2-fold with 50 μl of inoculum to give a final inoculum of ca 5×10^5 CFU/ml and desired test concentrations of antibacterial agents (0.03-64 μg/mL). The plates were incubated according to the guidelines of the Clinical and Laboratory Standards Institute (Clinical and Laboratory Standards Institute. Methods for Dilution Antimicrobial Susceptibility Tests for Bacteria That Grow Aerobically; Approved Standard-Eleventh Edition, CLSI document […], 11 Jan. 2018). The MIC90 (μg/ml) is the MIC value at which greater than or equal to 90% of the isolates (strains) within a test population are inhibited. Minimum Inhibitory Concentrations (MICs) versus Proteus spp. and Providencia spp. were determined for compound (I) and comparative compound (III) using the methodology outlined above for the 100 isolates of Escherichia coli and Klebsiella pneumonia.
# [2] = system: Klebsiella pneumonia (100 isolates); test: MIC90 by broth microdilution (EUCAST), 100 isolates of Klebsiella pneumonia; format: cell-based; conditions: test concentrations 0.03-64 μg/mL
# Description: as §1, with “inhibited.” for “inhibited. Minimum Inhibitory Concentrations (MICs) versus Proteus spp. and Providencia spp. were determined for compound (I) and comparative compound (III) using the methodology outlined above for the 100 isolates of Escherichia coli and Klebsiella pneumonia.”
# [3] = system: 44 ligands (including receptors, transporters, ion channels, enzymes and kinases); test: In vitro safety pharmacology binding assays (CEREP profile); conditions: 10 μM, 44 ligands tested, radioligand binding
# Description: In vitro pharmacology binding assays were carried out for compound (I), comparative compound (II) and comparative compound (III) to evaluate the percentage of inhibition against 44 ligands (including receptors, transporters, ion channels, enzymes and kinases) at a concentration of 10 μM of compound (I), comparative compound (II) or comparative compound (III). Compound binding was calculated as a percentage of inhibition of the binding of a radioactively labelled ligand specific for each target. Results showing an inhibition higher than 50% are considered to represent discernible effects of compound (I), comparative compound (II) or comparative compound (III). […] The in vitro pharmacology binding assays for compound (I) and comparative compounds (II) and (III) was carried out separately over different days, and compared in FIGS. 1a, 1b, 1c, and 1d.
# [4] = system: Escherichia coli (100 isolates); test: MIC90 by broth microdilution (EUCAST), 100 isolates of Escherichia coli; format: cell-based; conditions: test concentrations 0.03-64 μg/mL
# Description: as §1, with “inhibited.” for “inhibited. Minimum Inhibitory Concentrations (MICs) versus Proteus spp. and Providencia spp. were determined for compound (I) and comparative compound (III) using the methodology outlined above for the 100 isolates of Escherichia coli and Klebsiella pneumonia.”
# E. coli UTI89 = test: Proof-of-concept murine urinary tract infection model, IV bolus; format: in vivo; conditions: IV bolus 20 mg/kg TID over 3 days, 96 h
# Description: Compound (I) and comparative compound (III) were evaluated in proof-of-concept studies in murine models for the treatment of a respiratory infection with Gram-negative bacteria of the order Enterobacterales, a bacteraemia or bloodstream infection with Gram-negative bacteria of the order Enterobacterales, and a urinary tract infection with Gram-negative bacteria of the order Enterobacterales. Each dot, triangle or square indicator represents a single mouse. LOD refers to the limit of detection of the bacteria. […] Each of the proof-of-concept studies was carried out separately. By vehicle is meant pharmaceutically acceptable carrier or excipient. For the proof-of-concept study for the treatment of a urinary tract infection with Enterobacterales, female C3H/HeN mice were infected with E. coli UTI89. Twenty-four hours after infection (‘pre-treatment’ in FIGS. 4a-c), a vehicle (20% hydroxypropyl β cyclodextrin) containing no compound (I) or comparative compound (III), or a vehicle (20% hydroxypropyl β cyclodextrin) containing compound (I) or comparative compound (III), was administered by IV bolus of 20 mg/kg, TID (8 hrs apart), over 3 days.
# E. coli UT189 = test: Further proof-of-concept murine urinary tract infection model, intravenous infusion; format: in vivo; conditions: 96 h
# Description: Compound (I) was evaluated in further proof-of-concept studies in murine models for the treatment of a respiratory infection with Gram-negative bacteria of the order Enterobacterales, and a urinary tract infection with Gram-negative bacteria of the order Enterobacterales. Each dot, triangle or square indicator represents a single mouse. LOD refers to the limit of detection of the bacteria. […] Each of the proof-of-concept studies was carried out separately. By vehicle is meant pharmaceutically acceptable excipient or carrier. For the further proof-of-concept study for the treatment of a urinary tract infection with Enterobacterales, female C3H/HeN mice were infected with E. coli UT189. Twenty-four hours after infection (‘pre-treatment’ in FIGS. 6a-c), mice were either treated with a vehicle control (20% hydroxypropyl β cyclodextrin) containing no compound (I), or a vehicle (20% hydroxypropyl β cyclodextrin) containing compound (I), administered by intravenous infusion for 1 hour (QD) with a dose of 20 mg/kg of compound (I). For some mice who received vehicle containing compound (I), an additional 1-hour continuous intravenous infusion was administered 5 hours after the time at which the first administration begun (BID, 5 hrs apart). The once or twice daily administration was continued for three days. For QD, administration took place between 24 to 25 hours, 48 to 49 hours, and 72 to 73 hours after infection, and for BID, administration took place between 24 to 25 hours, 29 to 30 hours, 48 to 49 hours, 53 to 54 hours, 72 to 73 hours and 77 to 78 hours after infection.
# [5] = system: E. coli BAA-2469 (NDM-1 positive); test: Proof-of-concept murine bacteraemia or bloodstream infection model, IV bolus; format: in vivo; conditions: CD-1 mice, single dose IV bolus 20 mg/kg
# Description: Compound (I) and comparative compound (III) were evaluated in proof-of-concept studies in murine models for the treatment of a respiratory infection with Gram-negative bacteria of the order Enterobacterales, a bacteraemia or bloodstream infection with Gram-negative bacteria of the order Enterobacterales, and a urinary tract infection with Gram-negative bacteria of the order Enterobacterales. Each dot, triangle or square indicator represents a single mouse. LOD refers to the limit of detection of the bacteria. […] Each of the proof-of-concept studies was carried out separately. By vehicle is meant pharmaceutically acceptable carrier or excipient.
# For the proof-of-concept study for the treatment of a bacteraemia or bloodstream infection with Gram-negative bacteria of the order Enterobacterales, CD-1 mice were infected with human urine isolate E. coli BAA-2469 (NDM-1 positive). One hour after infection (‘pre-treatment’ in FIG. 3), a vehicle (20% hydroxypropyl β cyclodextrin) containing no compound (I) or comparative compound (III), or a vehicle (20% hydroxypropyl β cyclodextrin) containing compound (I) or comparative compound (III), was administered by as a single dose IV bolus at 20 mg/kg.
# [6] = system: Proteus spp. (10 isolates); test: MIC by broth microdilution versus Proteus spp. isolates; format: cell-based
# Description: as §1
# [7] = system: Klebsiella pneumoniae ATCC 43816; test: Proof-of-concept murine respiratory infection model, IV bolus; format: in vivo; conditions: CD-1 mice, 20 mg/kg IV bolus TID, 26 h
# Description: Compound (I) and comparative compound (III) were evaluated in proof-of-concept studies in murine models for the treatment of a respiratory infection with Gram-negative bacteria of the order Enterobacterales, a bacteraemia or bloodstream infection with Gram-negative bacteria of the order Enterobacterales, and a urinary tract infection with Gram-negative bacteria of the order Enterobacterales. Each dot, triangle or square indicator represents a single mouse. LOD refers to the limit of detection of the bacteria. […] Each of the proof-of-concept studies was carried out separately. By vehicle is meant pharmaceutically acceptable carrier or excipient. For the proof-of-concept study for the treatment of a respiratory infection caused or exacerbated by Gram-negative bacteria of the order Enterobacterales, CD-1 mice were infected with Klebsiella pneumoniae ATCC 43816. Two hours after infection (‘pre-treatment’ in FIG. 2), a vehicle (20% hydroxypropyl β cyclodextrin) containing no compound (I) or comparative compound (III), or a vehicle (20% hydroxypropyl β cyclodextrin) containing compound (I) or comparative compound (III), was administered by IV bolus at 20 mg/kg, TID (8 hrs apart), over one day.
# [8] = both QD and BID daily administration
MIC Range Providencia spp. (10 isolates) [1] [µg/mL],MIC Range Klebsiella pneumonia (100 isolates) [2] [µg/mL],MIC Range Escherichia coli (100 isolates) [4] [µg/mL],MIC Range Proteus spp. (10 isolates) [6] [µg/mL],Structure (SMILES),ligands with inhibition higher than 50% [3],more efficacious than comparative compound (III) in reducing the CFU in the bladder (E. coli UTI89) [log],more efficacious than comparative compound (III) in reducing the CFU in the urine (E. coli UTI89) [log],bacterial burden in the urine at end of study (E. coli UTI89; female C3H/HeN mice),bacterial burden in the kidney at end of study (E. coli UT189; BID administration),bacterial burden in the bladder at end of study (E. coli UT189; [8]),bacterial burden in the urine at end of study (E. coli UT189; [8]),bacterial burden in the blood at end of study ([5]; 9 h after initial infection),CFU value in the blood relative to stasis level ([5]; 9 h),CFU value in the lung relative to stasis level [7]
0.5 to 16,0.25 to 8.00,0.12 to 4.00,8 to 32,"Cc1cnccc1-c1[nH]c(N)nc1-c1ccc2c(c1)N(C(=O)C(C)(C)N)CCO2 [Compound (I), 2-amino-1-(6-(2-amino-5-(3-methylpyridin-4-yl)-1H-imidazol-4-yl)-2,3-dihydro-4H-benzo[b][1,4]oxazin-4-yl)-2-methylpropan-1-one]",only a single ligand,3,3,below the limit of detection (LOD),below the limit of detection (LOD),below the limit of detection (LOD),below the limit of detection (LOD),below the limit of detection (LOD),–,–
–,–,–,–,"Cc1cnccc1-c1[nH]c(N)nc1-c1ccc2c(c1)N(C(=O)CN)CCO2 [Comparative Compound (III), reference compound]",–,–,–,–,–,–,–,–,on or above the stasis level,relatively close to the stasis level
